For orientation: IC50 means the concentration needed to halve the response being measured. Low values mean greater potency in that assay, high ones weaker potency in that assay.

For the first experiment, the target named is T1, active p38 alpha enzyme (Upstate Biotechnology) (Homo sapiens, UniProt Q16539).
T1 construct: purchased Upstate Biotechnology
T1 sequence (Q16539 whole entry): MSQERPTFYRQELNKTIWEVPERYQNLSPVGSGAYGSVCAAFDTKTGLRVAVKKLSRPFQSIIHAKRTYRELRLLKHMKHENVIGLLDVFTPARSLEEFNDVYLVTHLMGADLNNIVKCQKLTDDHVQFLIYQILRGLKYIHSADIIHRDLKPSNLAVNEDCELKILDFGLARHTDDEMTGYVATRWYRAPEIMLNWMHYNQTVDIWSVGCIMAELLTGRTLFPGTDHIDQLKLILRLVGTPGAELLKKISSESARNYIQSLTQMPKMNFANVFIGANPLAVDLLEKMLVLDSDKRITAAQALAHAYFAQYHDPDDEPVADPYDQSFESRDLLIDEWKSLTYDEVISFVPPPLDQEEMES
The experiment is described as follows: p38α biochemical assay (ATP turnover, luminescent detection, Cambrex PKlight). The following applies: p38α biochemical assay, Table 1 Biological Activity. A digest of the protocol:
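Luminescent ATP-depletion readout measures total ATP turnover by p38α phosphorylating whole MapkapK2 protein. ATP 1.4 uM final; 30C, 2 h. Compounds delivered from DMSO.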
As for `CC(C)NC(=O)c1csc(-c2c(-c3ccc(F)cc3)noc2CNC(=O)c2ccccc2-c2ccccc2)n1` [Example 742], the concentration for half-maximal inhibition (IC50) is > 1000 nM.
For `CC(C)NC(=O)c1csc(-c2oc(CNC(=O)c3ccc4ccccc4c3O)nc2-c2ccc(F)cc2)n1` [Example 245], the IC50 is > 1000 nM.
As for `CC(C)NC(=O)c1csc(-c2oc(CN3CCN(C(=O)c4ccccc4C=O)CC3)nc2-c2ccc(F)cc2)n1` [Example 369], the IC50 is ≤ 1000 nM.
Take `C#CCNC(=O)c1csc(-c2c(-c3ccc(F)cc3)ncn2C2CCN(C(=O)CO)CC2)n1` [Example 94, 2-{5-(4-Fluoro-phenyl)-3-|1-(2-hydroxy-acetyl)-piperidin-4-yl|-3H-imidazol-4-yl}-thiazole-4-carboxylic acid prop-2-ynylamide]: the IC50 was ≤ 1000 nM.
Turning to `CC(C)NC(=O)c1csc(-c2oc(CNC(=O)CC3Cc4ccccc4C3)nc2-c2ccc(F)cc2)n1` [Example 203], the IC50 was > 1000 nM.
In the case of `Cc1ccccc1C(=O)NCc1nc(-c2ccc(F)cc2)c(-c2nc(C(=O)NC(C)C)cs2)o1` [Example 122], the IC50 is > 1000 nM.
The same measure, in the same setting: under `CC(C)NC(=O)c1csc(-c2oc(CNC(=O)c3c(F)cccc3F)nc2-c2ccc(F)cc2)n1` [Example 157] stands ≤ 1000 nM; under `O=C(NCC1CC1)c1csc(-c2c(-c3ccc(F)cc3)n[nH]c2C2CCNCC2)n1` [Example 69, 2-|3-(4-Fluoro-phenyl)-5-piperidin-4-yl-1H-pyrazol-4-yl|-thiazole-4-carboxylic acid cyclopropylmethyl-amide], ≤ 1000 nM; under `CC(C)NC(=O)c1csc(-c2oc(CN3CCN(C(=O)c4ccc(Oc5ccccc5)cc4)CC3)nc2-c2ccc(F)cc2)n1` [Example 527], ≤ 1000 nM.
In the case of `CC(C)NC(=O)c1csc(-c2oc(CN3CCN(C(=O)c4ccc([N+](=O)[O-])c(O)c4)CC3)nc2-c2ccc(F)cc2)n1` [Example 469], the IC50 is > 1000 nM.
On the same count and under the same terms, to `CC(C)NC(=O)c1csc(-c2oc(CNC(=O)c3ccccc3Oc3ccccc3)nc2-c2ccc(F)cc2)n1` [Example 289] belongs > 1000 nM.
Same read-out and setting: under `Cc1cccc(C(=O)NCc2nc(-c3ccc(F)cc3)c(-c3nc(C(=O)NC(C)C)cs3)o2)c1O` [Example 142] stands > 1000 nM; under `CC(C)NC(=O)c1csc(-c2oc(CN3CCN(C(=O)CCc4nc5ccccc5[nH]4)CC3)nc2-c2ccc(F)cc2)n1` [Example 487], > 1000 nM.
In the case of `CC(C)NC(=O)c1csc(-c2oc(CNC(=O)c3ccc(-c4ccc(O)cc4)cc3)nc2-c2ccc(F)cc2)n1` [Example 291], the IC50 was ≤ 1000 nM.
The same measure, in the same setting: under `CC(C)NC(=O)c1csc(-c2oc(CN3CCN(C(=O)c4c(F)cccc4F)CC3)nc2-c2ccc(F)cc2)n1` [Example 394] stands > 1000 nM; under `CC(C)NC(=O)c1csc(-c2oc(CN3CCN(C(=O)c4cccc(Cl)c4[N+](=O)[O-])CC3)nc2-c2ccc(F)cc2)n1` [Example 507], ≤ 1000 nM.
As for `CC(C)NC(=O)c1csc(-c2c(-c3ccc(F)cc3)noc2CNC(=O)c2cc([N+](=O)[O-])ccc2F)n1` [Example 710], the IC50 is > 1000 nM.
As to `CC(=O)c1ccccc1C(=O)N1CCN(Cc2nc(-c3ccc(F)cc3)c(-c3nc(C(=O)NC(C)C)cs3)o2)CC1` [Example 407], the IC50 is ≤ 1000 nM.
Same read-out and setting: to `CC(C)NC(=O)c1csc(-c2oc(CN3CCN(C(=O)C(Cc4ccc(O)cc4)NC(=O)OC(C)(C)C)CC3)nc2-c2ccc(F)cc2)n1` (stereo not drawn) [Example 571] belongs ≤ 1000 nM.
As for `Cc1cccc(C(=O)NCc2nc(-c3ccc(F)cc3)c(-c3nc(C(=O)NC(C)C)cs3)o2)c1[N+](=O)[O-]` [Example 221], the IC50 was ≤ 1000 nM.
Take `COc1cc(C(=O)NCc2nc(-c3ccc(F)cc3)c(-c3nc(C(=O)NC(C)C)cs3)o2)cc(OC)c1O` [Example 266]: the IC50 is ≤ 1000 nM.
On the same count and under the same terms, under `CC(C)NC(=O)c1csc(-c2oc(CN3CCN(C(=O)C4CCCCC4)CC3)nc2-c2ccc(F)cc2)n1` [Example 355] stands ≤ 1000 nM.
Still for that read-out and setting: under `CC(C)NC(=O)c1csc(-c2oc(CN3CCN(C(=O)c4cccc(Oc5ccccc5)c4)CC3)nc2-c2ccc(F)cc2)n1` [Example 525] stands > 1000 nM.

The experiment is the same for the next values; noted with them: p38α kinase; Table 1 Biological Activity.
For the compound `Cc1nc(-c2ccc(F)cc2)c(-c2nc(C(=O)N3CCC(Cc4ccccc4)CC3)cs2)s1` [Example 1899], the IC50 was > 1000 nM.
With `Cc1nc(-c2ccc(F)cc2)c(-c2nc(C(=O)NCc3ccccc3Cl)cs2)s1` [Example 1786], the IC50 was ≤ 1000 nM.
In the case of `CC(C)NC(=O)c1csc(-c2c(-c3ccc(F)cc3)noc2CNCCCNC(=O)OC(C)(C)C)n1` [Example 1492], the IC50 was > 1000 nM.
Regarding `Cc1nc(-c2ccc(F)cc2)c(-c2nc(C(=O)Nc3ccccc3F)cs2)s1` [Example 1963], the IC50 was > 1000 nM.
As to `Cc1nc(-c2ccc(F)cc2)c(-c2nc(C(=O)NC3CONC3=O)cs2)s1` (stereo not drawn) [Example 1736], the IC50 was > 1000 nM.
For `Cc1nc(-c2ccc(F)cc2)c(-c2nc(C(=O)N3CCCC4CCCCC43)cs2)s1` (stereo not drawn) [Example 1880], the IC50 was ≤ 1000 nM.
Turning to `CC(C)NC(=O)c1csc(-c2oc(CN(C)C3CCCCC3)nc2-c2ccc(F)cc2)n1` [Example 1207], the IC50 is > 1000 nM.
`CC1CCC(NCc2onc(-c3ccc(F)cc3)c2-c2nc(C(=O)NC(C)C)cs2)CC1` (stereo not drawn) [Example 1420]: the IC50 was > 1000 nM.
The same measure, in the same setting: to `Cc1nc(-c2ccc(F)cc2)c(-c2nc(C(=O)Nc3cnc4ccccc4c3)cs2)s1` [Example 1994] belongs ≤ 1000 nM; to `Cc1nc(-c2ccc(F)cc2)c(-c2nc(C(=O)NCc3ccc(C(C)C)cc3)cs2)s1` [Example 1795], > 1000 nM.
The same measure, in the same setting: to `Cc1nc(-c2ccc(F)cc2)c(-c2nc(C(=O)N3CCN(c4ccc(C(F)(F)F)cn4)CC3)cs2)s1` [Example 1951] belongs > 1000 nM; to `Cc1nc(-c2ccc(F)cc2)c(-c2nc(C(=O)N(CCC#N)Cc3cccnc3)cs2)s1` [Example 1891], > 1000 nM; to `CC(C)NC(=O)c1csc(-c2c(-c3ccc(F)cc3)noc2CNCC2(O)CCCCC2)n1` [Example 1488], > 1000 nM.
For the compound `CC(C)NC(=O)c1csc(-c2oc(CN3CCOCC3)nc2-c2ccc(F)cc2)n1` [Example 1183], the IC50 was ≤ 1000 nM.
In the case of `CC(C)NC(=O)c1csc(-c2oc(CN3CCC(O)(c4ccc(Cl)cc4)CC3)nc2-c2ccc(F)cc2)n1` [Example 1289], the IC50 was > 1000 nM.
Turning to `Cc1cccc(N2CCN(Cc3nc(-c4ccc(F)cc4)c(-c4nc(C(=O)NC(C)C)cs4)o3)CC2C)c1` (stereo not drawn) [Example 1264], the IC50 was > 1000 nM.
With `CC(C)NC(=O)c1csc(-c2c(-c3ccc(F)cc3)n[nH]c2C2CCN(C(=O)c3cccc([N+](=O)[O-])c3)CC2)n1` [Example 899], the IC50 was > 1000 nM.
On the same count and under the same terms, under `Cc1cccc(C(C)C)c1NCc1nc(-c2ccc(F)cc2)c(-c2nc(C(=O)NC(C)C)cs2)o1` [Example 1349] stands > 1000 nM; under `CC(C)NC(=O)c1csc(-c2oc(CNC3CCCc4ccccc43)nc2-c2ccc(F)cc2)n1` (stereo not drawn) [Example 1304], > 1000 nM.
Consider `CC(C)NC(=O)c1csc(-c2c(-c3ccc(F)cc3)noc2CNC2CCCCC2)n1` [Example 1408], for which the IC50 was > 1000 nM.
Take `CC(C)NC(=O)c1csc(-c2c(-c3ccc(F)cc3)noc2CNC2CCCCCC2)n1` [Example 1422]: the IC50 was > 1000 nM.
Still for that read-out and setting: to `CC(C)NC(=O)c1csc(-c2c(-c3ccc(F)cc3)n[nH]c2C2CCN(C(=O)c3ccccc3)CC2)n1` [Example 2170, 2-|5-(1-Benzoyl-piperidin-4-yl)-3-(4-fluoro-phenyl)-1H-pyrazol-4-yl|-thiazole-4-carboxylic acid isopropylamide] belongs > 1000 nM; to `Cc1nc(-c2ccc(F)cc2)c(-c2nc(C(=O)N(CCN(C)C)Cc3ccccc3)cs2)s1` [Example 1903], > 1000 nM.
Same read-out and setting: under `O=C(NCc1ccccc1Cl)c1csc(-c2c(-c3ccc(F)cc3)n[nH]c2C2CCNCC2)n1` [Example 2108] stands > 1000 nM.
Same read-out and setting: under `COCC(=O)N1CCC(c2[nH]nc(-c3ccc(F)cc3)c2-c2nc(C(=O)NC(C)C)cs2)CC1` [Example 2173, 2-{3-(4-Fluoro-phenyl)-5-|1-(2-methoxy-acetyl)-piperidin-4-yl|-1H-pyrazol-4-yl}-thiazole-4-carboxylic acid isopropylamide] stands ≤ 1000 nM.
Consider `CC(C)NC(=O)c1csc(-c2oc(CN(C)CC(O)c3ccccc3)nc2-c2ccc(F)cc2)n1` (stereo not drawn) [Example 1235], for which the IC50 was > 1000 nM.
Turning to `CC(=O)Nc1ccc(NC(=O)c2csc(-c3sc(C)nc3-c3ccc(F)cc3)n2)cc1` [Example 2000], the IC50 was ≤ 1000 nM.
With `Cc1nc(-c2ccc(F)cc2)c(-c2nc(C(=O)N(C)Cc3ccccc3)cs2)s1` [Example 1867], the IC50 is > 1000 nM.
Turning to `CC(C)NC(=O)c1csc(-c2c(-c3ccc(F)cc3)noc2CNc2cc(F)c(F)cc2F)n1` [Example 1670], the IC50 was > 1000 nM.
As for `CC(C)NC(=O)c1csc(-c2oc(CN(C)CCc3ccccn3)nc2-c2ccc(F)cc2)n1` [Example 1228], the IC50 is > 1000 nM.
Take `Cc1nc(-c2ccc(F)cc2)c(-c2nc(C(=O)N3CCC(N(C)C)C3)cs2)s1` (stereo not drawn) [Example 1859]: the IC50 is > 1000 nM.
Regarding `CC(C)NC(=O)c1csc(-c2c(-c3ccc(F)cc3)noc2CN2CCC(Cc3ccccc3)CC2)n1` [Example 1574], the IC50 is > 1000 nM.
For `COCCNCc1onc(-c2ccc(F)cc2)c1-c1nc(C(=O)NC(C)C)cs1` [Example 1377], the IC50 is > 1000 nM.
Regarding `Cc1nc(-c2ccc(F)cc2)c(-c2nc(C(=O)N[C@H](CO)Cc3ccccc3)cs2)s1` [Example 1798], the IC50 was ≤ 1000 nM.
Turning to `CCc1cccc(C)c1NCc1nc(-c2ccc(F)cc2)c(-c2nc(C(=O)NC(C)C)cs2)o1` [Example 1337], the IC50 was > 1000 nM.
Turning to `CC(C)NC(=O)c1csc(-c2c(-c3ccc(F)cc3)noc2CNCCc2c[nH]c3ccccc23)n1` [Example 1485], the IC50 was > 1000 nM.
Take `CC(C)NC(=O)c1csc(-c2c(-c3ccc(F)cc3)n[nH]c2C2CCN(C(=O)c3ccccc3C(F)(F)F)CC2)n1` [Example 963]: the IC50 is > 1000 nM.
